Measurements taken from article PMC7596334 (Redox Biology, 2020).

Molecular target: T1, 15LOX2 (Homo sapiens, UniProt O15296)
T1 sequence (O15296 1-676): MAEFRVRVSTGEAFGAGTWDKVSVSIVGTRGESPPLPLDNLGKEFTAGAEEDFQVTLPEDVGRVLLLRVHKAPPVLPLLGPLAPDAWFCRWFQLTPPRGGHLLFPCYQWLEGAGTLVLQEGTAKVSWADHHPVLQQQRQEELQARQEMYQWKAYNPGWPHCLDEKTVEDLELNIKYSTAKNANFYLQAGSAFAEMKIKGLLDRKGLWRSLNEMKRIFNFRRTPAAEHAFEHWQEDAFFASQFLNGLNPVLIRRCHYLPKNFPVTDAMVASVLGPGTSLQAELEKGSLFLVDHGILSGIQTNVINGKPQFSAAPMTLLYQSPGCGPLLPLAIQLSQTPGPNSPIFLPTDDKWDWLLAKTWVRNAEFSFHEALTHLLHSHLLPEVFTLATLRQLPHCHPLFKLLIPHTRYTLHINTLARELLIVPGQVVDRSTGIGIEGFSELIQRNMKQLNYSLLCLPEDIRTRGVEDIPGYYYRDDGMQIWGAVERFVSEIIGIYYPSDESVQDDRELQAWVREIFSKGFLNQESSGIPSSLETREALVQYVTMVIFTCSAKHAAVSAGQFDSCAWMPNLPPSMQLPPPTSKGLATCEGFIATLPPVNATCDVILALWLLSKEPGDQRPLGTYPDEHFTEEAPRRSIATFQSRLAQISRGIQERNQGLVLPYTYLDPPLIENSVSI
T1 sequence (P30086 2-187 partner): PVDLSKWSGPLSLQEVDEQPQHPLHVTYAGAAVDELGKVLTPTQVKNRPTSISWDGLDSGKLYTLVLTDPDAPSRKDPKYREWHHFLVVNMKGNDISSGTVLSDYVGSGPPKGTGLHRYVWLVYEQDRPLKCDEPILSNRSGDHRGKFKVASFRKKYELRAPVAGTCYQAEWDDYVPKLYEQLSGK
Assay type: biochemical

IC50: 10.1 nM
Compound: CCOC(=O)c1ccc(NC2CCCCC2)c(N)c1 [Fer-1, Ferrostatin-1]
